Like-named read-outs stand apart in the source and are kept apart here. Marks after values point to notes of the source that are not given here.
Columns and labels:
[1] = Pharmacokinetics and metabolite formation in rats; type: in vivo, rat; conditions: rat, in vivo; for AUC(0-t) / half-life: both sexes, po, 12.5 mg/kg; for AUC0-12 M2, percent change relative to Ulixertinib / AUC0-12 M3, percent change relative to Ulixertinib / AUC0-12 M6, percent change relative to Ulixertinib / AUC0-12 Parent, percent change relative to Ulixertinib / Half-life, percent change relative to Ulixertinib / longer mean half-life than ulixertinib: both
Procedure: Ulixertinib, Formulas 18A, 19A, and 21A were dosed twice daily (12 hours apart, ±30 minutes) for five consecutive days (10 doses/animal) to rats via oral gavage (PO). Each compound was administered at a dose of 12.5 mg/kg to 6 rats (3 male/3 female, N=6 rats/compound). Each compound was formulated in 1% (w/v) carboxymethylcellulose (CMC) in water at a concentration of 1.25 mg/mL. Following the second (p.m.) dose on Day 5, blood samples were collected from each rat at approximately 0.5, 1, 2, 4, 6, 8, and 12 hours post-dose. Blood samples were centrifuged to obtain plasma. Plasma samples were analyzed for concentrations of the dosed compounds and selected metabolites using an established LC-MS/MS method. The lower limit of quantitation of each compound was 1.00 ng/mL. The rat half-life values (determined by non-compartmental analysis using WinNonlin software) for each compound are shown in Table 7, and the areas under curve from time 0 to hour 12 (AUC0-12), calculated using the linear trapezoidal rule, for each dosed compound and selected metabolites are presented in Table 8.

[2] = Half-life determination in human liver microsomes; type: in vitro ADME; conditions: for half-life at 1 μM: human, NADPH
Procedure: Human microsomes from a pool of 10 donors was obtained from a commercial source. Microsomes prepared in potassium phosphate buffer were spiked with ulixertinib, Formula 18, Formula 19, and Formula 21 individually in replicates of six at a final concentration of 1 μM. NADPH was used to initiate the experiment; a control of minus NADPH (minus cofactor) was also run in parallel to the human liver microsome stability. After spiking with test article, microsome replicates were placed in a 37° C. incubator with the following time course: 0, 5, 10, 15, 20, 30, 45 and 60 minutes. Samples were extracted with a protein precipitation quench consisting of ice cold acetonitrile containing internal standard (tolbutamide). Samples were analyzed for ulixertinib, Formula 18, Formula 19, and Formula 21. The half-lives of ulixertinib, Formula 18, Formula 19, and Formula 21 were characterized by the […] to determine the elimination rate (ke) and using the formula described below.
[formula] • ke (elimination rate): the slope of ln(percent remaining) vs time (in minutes)

pRSK/RSK in A375 cells = experiment: A375 pRSK/RSK dose response study (ELISA); type: cell-based; conditions: Homo sapiens, A-375, pRSK and total RSK ELISA
Procedure: A375 pRSK/RSK Dose Response Study
Briefly, A375 cells were plated at 30,000 cells/well in 2×96 well plates, allowed to recover overnight, washed and fed fresh media the next day then treated with a dose response of the selected compounds. Following the determined pretreatment with the compounds at 37° C./5% CO2 the media was aspirated, and cells lysed with cold, complete MSD lysis buffer. pRSK and total RSK were analyzed using CST/PathScan pRSK and total RSK ELISAS according to the respective kit protocols. All samples were analyzed at 90% of remaining sample in pRSK and 10% of remaining sample in total RSK ELISA, which was performed following kit protocols.

A375 cells = experiment: A375 proliferation assay (Cell TiterGlo); type: cell-based; conditions: Homo sapiens, A-375, 72 hours
Procedure: Mechanism of Action (MOA) Cell Assay—A375 Cell Proliferation, pERK/ERK and pRSK/RSK Analysis:
Briefly, A375 cells were plated at 10,000 cells/well in three 96 well plates. Plates were incubated overnight at 37° C. and allowed to recover. Cells were washed with 150 μL of DPBS and 90 μL of fresh media was added to each well. The cells were then treated with a dose response of the selected compounds. Compounds were diluted from stock concentrations (10 mM in DMSO). Serial dilutions were made in DMSO, yielding 8 total different concentrations per compound. At time of compound addition, the control plate was analyzed using Cell TiterGlo to set baseline for proliferation. Compound treated cells were allowed to grow at 37° C./5% CO2 for 72 hours then analyzed using Cell TiterGlo according to kit protocol.

[3] = system: phospho-ERK1/2 to total ERK1/2 in A375 cells; experiment: A375 pERK/ERK dose response study (MSD); type: cell-based; conditions: Homo sapiens, A-375, ratio of phospho-ERK1/2 to total ERK1/2
Procedure: A375 pERK/ERK Dose Response Study:
Briefly, A375 cells were plated at 30,000 cells/well in 2×96 well plates, allowed to recover overnight, washed and fed fresh media the next day then treated with a dose response of the selected compounds. Following the determined pretreatment time with the compounds at 37° C./5% CO2, the media was aspirated, and cells lysed with cold, complete MESO Scale Discovery (MSD) lysis buffer. pERK and total ERK1/2 levels were measured using MESO Scale Discover Phospho(Thr202/Tyr204; Thr185/Tyr187)/Total ERK1/2 kits. The protocol and all reagents were provided in the kit. All wells were blocked with 150 μl Blocking Solution for one hour. […] of lysis buffer was added per well and incubated overnight at 4° C. Following the overnight incubation, the wells were washed three times with Tris Wash buffer, then […] of 1× Detection Antibody was added per well and incubated at room temperature for one hour with vigorous shaking. All wells were then washed three times with Tris Wash Buffer before 150 μl of 1× Read Buffer was added per well and the plates read using the MSD Sector Imager. Data were calculated as a ratio of phospho-ERK1/2 to total ERK1/2 to allow for normalization of the samples.

[4] = Steady-state exposure of ulixertinib and metabolites in rat; type: in vivo; conditions: for % of total Ulixertinib related exposure: day 5, steady state; for AUC at 5 day: in vivo, day 5, non-isotopically enriched ulixertinib and related metabolites, read-out: Steady-State AUC (Mean ± SD)
Description: (§1) The steady state exposure levels of non-isotopically enriched parent ulixertinib and related metabolites in rat (day 5) and human subjects (day 15) is provided in TABLE 1 below: […]

[5] = Steady-state exposure of ulixertinib and metabolites in human subjects; type: in vivo; conditions: for % of total Ulixertinib related exposure: day 15, steady state; for AUC at 15 day: in vivo, day 15, non-isotopically enriched ulixertinib and related metabolites, read-out: Steady-State AUC (Mean ± SD)
Description: as §1

Compound	AUC(0-t) [1]	half-life [1]	AUC0-12 M2, percent change relative to Ulixertinib [1]	AUC0-12 M3, percent change relative to Ulixertinib [1]	AUC0-12 M6, percent change relative to Ulixertinib [1]	AUC0-12 Parent, percent change relative to Ulixertinib [1]	Half-life, percent change relative to Ulixertinib [1]	longer mean half-life than ulixertinib [1]	% of total Ulixertinib related exposure [4]	AUC at 5 day [4]	% of total Ulixertinib related exposure [5]	AUC at 15 day [5]	also measured
Cl.[2H]C([2H])([2H])C([2H])(Nc1cc(-c2c[nH]c(C(=O)N[C@H](CO)c3cccc(Cl)c3)c2)c(Cl)cn1)C([2H])([2H])[2H] [Formula 18A]	228000 ng·h/mL	4.18 h	(−4%^a)	(−75%^a)	(+25%^a)	(+32%^a)	(+14%^a)	14%	–	–	–	–	–
Cl.[2H]C([2H])([2H])C(Nc1cc(-c2c[nH]c(C(=O)N[C@H](CO)c3cccc(Cl)c3)c2)c(Cl)cn1)C([2H])([2H])[2H] [Formula 19A]	199000 ng·h/mL	4 h	(−17%^a)	(−84%^a)	(−35%)	(+15%^a)	(+9%^a)	9%	–	–	–	–	–
[2H]C(C)(C)Nc1cc(-c2c[nH]c(C(=O)N[C@H](CO)c3cccc(Cl)c3)c2)c(Cl)cn1 [Formula 21, 4-(5-chloro-2-((propan-2-yl-2-d1)amino)pyridin-4-yl)-N-(1-(3-chlorophenyl)-2-hydroxyethyl)-1H-pyrrole-2-carboxamide]	–	–	–	–	–	–	–	–	–	–	–	–	longer half-life than ulixertinib ([2]; Table 5): 30%; half-life at 1 μM ([2]; Rep 1, read-out: Half-life, t½, Rep 1): 1.01 h; half-life at 1 μM ([2]; Rep 2, read-out: Half-life, t½, Rep 2): 1.26 h; half-life at 1 μM ([2]; Rep 3, read-out: Half-life, t½, Rep 3): 1.07 h; half-life at 1 μM ([2]; Rep 4, read-out: Half-life, t½, Rep 4): 1.02 h; half-life at 1 μM ([2]; Rep 5, read-out: Half-life, t½, Rep 5): 0.992 h; half-life at 1 μM ([2]; Rep 6, read-out: Half-life, t½, Rep 6): 1.01 h; half-life at 1 μM ([2]; six replicates, read-out: Half-life, t½, Mean ± SD): 1.06 ± 0.102 h; Half-life, % change relative to ulixertinib ([2]; mean): (+30%); IC50 (pRSK/RSK in A375 cells): 37 nM; IC50 (A375 cells): 310 nM; IC50 [3]: 64 nM
C[C@H](CO)Nc1cc(-c2c[nH]c(C(=O)N[C@H](CO)c3cccc(Cl)c3)c2)c(Cl)cn1 [Formula 34]	–	–	–	–	–	–	–	–	8.1%	15900 ± 4700 ng·h/mL	49.9%	39400 ± 12000 ng·h/mL	Formula 34/Ulixertinib steady-state AUC ratio ([4]; day 5): 0.09; Formula 34/Ulixertinib steady-state AUC ratio ([5]; day 15): 1.3
C[C@@H](CO)Nc1cc(-c2c[nH]c(C(=O)N[C@H](CO)c3cccc(Cl)c3)c2)c(Cl)cn1 [Formula 35]	–	–	–	–	–	–	–	–	0.6%	1200 ± 200 ng·h/mL	4.3%	3400 ± 2300 ng·h/mL	–
C[C@H](Nc1cc(-c2c[nH]c(C(=O)N[C@H](CO)c3cccc(Cl)c3)c2)c(Cl)cn1)C(=O)O [Formula 37]	–	–	–	–	–	–	–	–	0.2%	400 ± 200 ng·h/mL	8.2%	6500 ± 5500 ng·h/mL	–
